Assay results as given in patent US8563559B2 (Rigel Pharmaceuticals, Inc., priority 2006, dated 2013).
pIC50: −log10 of the molar value.

biological target: T1, Axl (Homo sapiens, UniProt P30530); experiment: Phospho-AKT in-cell Western assay (inhibition of Axl activity); format: cell-based; conditions: Table 1, formula (Ia); Hela cells, Axl antibody cross-linking stimulation, phospho-Akt chemiluminescence normalized to relative cell number
T1 construct: endogenous in cells; host or cells: HeLa
T1 sequence (P30530 26-894): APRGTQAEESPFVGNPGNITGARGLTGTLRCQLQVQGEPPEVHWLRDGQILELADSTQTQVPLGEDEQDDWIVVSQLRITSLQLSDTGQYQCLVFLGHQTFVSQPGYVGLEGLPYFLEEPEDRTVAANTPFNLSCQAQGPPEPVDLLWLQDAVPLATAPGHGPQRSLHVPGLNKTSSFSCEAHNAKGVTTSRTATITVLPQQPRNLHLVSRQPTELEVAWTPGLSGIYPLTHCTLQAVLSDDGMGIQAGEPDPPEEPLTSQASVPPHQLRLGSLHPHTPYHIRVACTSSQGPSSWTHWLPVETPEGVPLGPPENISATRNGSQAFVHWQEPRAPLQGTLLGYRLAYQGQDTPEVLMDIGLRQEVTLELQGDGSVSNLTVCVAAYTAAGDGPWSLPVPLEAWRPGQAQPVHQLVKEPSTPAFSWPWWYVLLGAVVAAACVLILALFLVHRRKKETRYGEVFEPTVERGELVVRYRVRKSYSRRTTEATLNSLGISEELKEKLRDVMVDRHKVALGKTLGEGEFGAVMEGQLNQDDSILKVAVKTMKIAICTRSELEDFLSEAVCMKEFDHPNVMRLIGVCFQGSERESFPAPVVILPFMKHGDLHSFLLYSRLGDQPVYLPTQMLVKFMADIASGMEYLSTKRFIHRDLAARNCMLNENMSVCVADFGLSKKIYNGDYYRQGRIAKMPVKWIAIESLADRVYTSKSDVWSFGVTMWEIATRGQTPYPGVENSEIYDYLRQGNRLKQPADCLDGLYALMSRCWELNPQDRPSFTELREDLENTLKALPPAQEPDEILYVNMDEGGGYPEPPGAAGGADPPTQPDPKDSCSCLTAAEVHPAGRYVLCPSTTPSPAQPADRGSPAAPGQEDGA
Method: The compounds of the invention were tested in the following assay for their ability to inhibit Axl activity.
Phospho-AKT in-Cell Western Assay
• Cell culture plate: 96 well assay plate (Corning 3610), white, clear bottom, tissue-culture treated. • Cells: Hela cells. • Starvation medium: For Axl stimulation: 0.5% FCS (fetal calf serum) in DMEM, plus Axl/Fc (extracellular domain of AXL fused to immunoglobulin Fc region) (R&D, 154-AL) 500 ng/mL. • For EGF (epidermal growth factor) stimulation: 0.5% FCS in DMEM (Dulbecco's modified Eagles medium). • Poly-L-Lysine 0.01% solution (the working solution): 10 μg/ml, dilute In PBS (phosphate buffered saline). • Axl antibody cross-linking: • 1st: Mouse anti-Axl (R&D, MAB154). • 2nd: Biotin-SP-conjugated AffiniPure goat anti-mouse IgG (H+L) (Jackson ImmunoResearch #115-065-003). • Fixing buffer: 4% formaldehyde in PBS. • Wash buffer: 0.1% TritonX-100 in PBS. • Quenching buffer: 3% H2O2, 0.1% Azide in wash buffer, Azide and hydrogen peroxide 1(H2O2) are added fresh. • Blocking buffer: 5% BSA in TBST (tris buffered saline plus 0.1% Tween 20). • Primary antibody: Rabbit anti-human Phospho-Akt antibody (Cell Signaling 9271): 1×250 diluted in blocking buffer. • Secondary antibody: HRP (horse radish peroxidase)-conjugated Goat anti-Rabbit secondary, stock solution: Jackson ImmunoResearch (Goat anti-Rabbit HRP, #111-035-144) 1:1 diluted in glycerol, store at −20° C. The working solution: 1×2000 dilution of stock in blocking buffer. • Chemiluminescent working solution (Pierce, 37030): SuperSignal ELISA (enzyme linked immunosorbant assay) Pico Chemiluminescent substrate. • Crystal Violet solution: Stock: 2.5% Crystal violet in methanol, filtered and kept at ambient temperature. The working solution: dilute the stock 1:20 with PBS immediately before use. • 10% SDS: working solution: 5% SDS (sodium dodecylsulfate), diluted in PBS Methods: Day 1:
A 96 well TC (tissue culture treated) plate was coated with 10 μg/mL poly-L-Lysine at 37° C. for 30 min, washed twice with PBS, and air-dried for 5 minutes before cells were added. Hela cells were seeded at 10,000 cells/well and the cells were starved in 100 μL starvation medium containing Axl/Fc for 24 hrs.
The cells were pre-treated with test compounds by adding 100 μL of 2× test compound to the starvation medium on the cells. The cells were incubated at 37° C. for 1 hr before stimulation.
The cells were stimulated by Axl-antibody cross-linking as follows: A 5×1st/2nd Axl antibody mixture was made (37.5 μg/mL 1st/100 μg/mL 2nd) in starvation medium and nutated at 4° C. with thorough mixing for 1-2 hours for clustering. The resulting mix was warmed to 37° C. 50 μL of 5×Axl 1st/2nd of antibody cluster was added to the cells and the cells were incubated at 37° C. for 5 min.
After 5 minutes stimulation, the plate was flicked to remove medium and the plate was tapped onto paper towels. Formaldehyde (4.0% in PBS, 100 μL) was added to fix the cells and the cells were incubated at ambient temperature for 20 min without shaking.
The cells were washed with a plate washer buffer to remove the formaldehyde solution. The plate was flicked to removed excess wash buffer and tapped onto paper towels. Quenching buffer (100 μL) was added to each well and the cells were incubated at ambient temperature for 20 minutes without shaking.
The cells were washed with a plate washer buffer to remove the quenching buffer. Blocking buffer (100 μL) was added and the cells were incubated at ambient temperature for at least an hour with gentle shaking.
The cells were washed with a plate washer buffer and diluted primary antibody (50 μL) was added to each well (blocking buffer was added to the negative control wells instead). The plates were incubated overnight at 4° C. with gentle shaking.
The wash buffer was removed, diluted secondary antibody (100 μL) was added, and the cells were incubated at ambient temperature for 1 hour with gentle shaking. […]

SMILES | pIC50
CN1CCN(c2ccc(Nc3nccc(N[C@@]4(CCO)[C@@H](C(N)=O)C[C@H]5C[C@@H]4C5(C)C)n3)cc2F)CC1 [Compound 19, (1R,2R,3S,5R)-2-(2-(3-fluoro-4-(4-methylpiperazin-1-yl)phenylamino)pyrimidin-4-ylamino)-2-(2-hydroxyethyl)-6,6-dimethylbicyclo[3.1.1]heptane-3-carboxamide] | < 4.70
CC1(C)[C@H]2C[C@H](C(N)=O)[C@](C)(Nc3nc(Nc4ccc(OCCN5CCCC5)cc4)ncc3Cl)[C@@H]1C2 [Compound 29, (1R,2R,3S,5R)-2-(5-chloro-2-(4-(2-(pyrrolidin-1-yl)ethoxy)phenylamino)pyrimidin-4-ylamino)-2,6,6-trimethylbicyclo[3.1.1]heptane-3-carboxamide] | > 6.00
CC1(C)[C@H]2C[C@H](C(N)=O)[C@](C)(Nc3nc(Nc4ccc(OCCN5CCCC5)c(F)c4)ncc3Cl)[C@@H]1C2 [Compound 30, (1R,2R,3S,5R)-2-(5-chloro-2-(3-fluoro-4-(2-(pyrrolidin-1-yl)ethoxy)phenylamino)pyrimidin-4-ylamino)-2,6,6-trimethylbicyclo[3.1.1]heptane-3-carboxamide] | > 6.00
CNC(=O)[C@H]1C[C@H]2C[C@H](C2(C)C)[C@@]1(C)Nc1nc(Nc2ccc(N3CCC(N4CCN(C)CC4)CC3)c(F)c2)ncc1Cl [Compound 31, (1R,2R,3S,5R)-2-(5-chloro-2-(3-fluoro-4-(4-(4-methylpiperazin-1-yl)piperidin-1-yl)phenylamino)pyrimidin-4-ylamino)-N,2,6,6-tetramethylbicyclo[3.1.1]heptane-3-carboxamide] | > 6.00
CCN(CC)C1CCN(c2ccc(Nc3ncc(Cl)c(N[C@@]4(C)[C@@H](C(=O)NC)C[C@H]5C[C@@H]4C5(C)C)n3)cc2F)CC1 [Compound 32, (1R,2R,3S,5R)-2-(5-chloro-2-(3-fluoro-4-(4-(diethylamino)piperidin-1-yl)phenylamino)pyrimidin-4-ylamino)-N,2,6,6-tetramethylbicyclo[3.1.1]heptane-3-carboxamide] | > 6.00
CNC(=O)[C@H]1C[C@H]2C[C@H](C2(C)C)[C@@]1(C)Nc1nc(Nc2ccc(OCCN(C)C3CCCC3)cc2)ncc1Cl [Compound 33, (1R,2R,3S,5R)-2-(5-chloro-2-(4-(2-((cyclopentyl)(methyl)amino)ethoxy)phenylamino)pyrimidin-4-ylamino)-N,2,6,6-tetramethylbicyclo[3.1.1]heptane-3-carboxamide] | > 6.00
CNC(=O)[C@H]1C[C@H]2C[C@H](C2(C)C)[C@@]1(C)Nc1nc(Nc2ccc(N3CCC(F)(F)CC3)c(Cl)c2)ncc1F [Compound 34, (1R,2R,3S,5R)-2-(5-fluoro-2-(3-chloro-4-(4,4-difluoropipendin-1-yl)phenylamino)pyrimidin-4-ylamino)-N,2,6,6-tetramethylbicyclo[3.1.1]heptane-3-carboxamide] | < 4.70
CNC(=O)[C@H]1C[C@H]2C[C@H](C2(C)C)[C@@]1(C)Nc1nc(Nc2ccc(N3CCC(F)(F)CC3)c(F)c2)ncc1F [Compound 35, (1R,2R,3S,5R)-2-(5-fluoro-2-(3-fluoro-4-(4,4-difluoropiperidin-1-yl)phenylamino)pyrimidin-4-ylamino)-N,2,6,6-tetramethylbicyclo[3.1.1]heptane-3-carboxamide] | < 4.70
CNC(=O)[C@H]1C[C@H]2C[C@H](C2(C)C)[C@@]1(C)Nc1nc(Nc2ccc(N3CCN(S(C)(=O)=O)CC3)c(Cl)c2)ncc1F [Compound 36, (1R,2R,3S,5R)-2-(5-fluoro-2-(3-chloro-4-(4-methylsulfonylpiperazin-1-yl)phenylamino)pyrimidin-4-ylamino)-N,2,6,6-tetramethylbicyclo[3.1.1]heptane-3-carboxamide] | 5.00 to 6.00

same assay, conditions: Table 2, formula (Ib); Hela cells, Axl antibody cross-linking stimulation, phospho-Akt chemiluminescence normalized to relative cell number

SMILES | pIC50
CNC(=O)[C@@H]1C[C@@H]2C[C@@H](C2(C)C)[C@]1(C)Nc1nc(Nc2ccc(N3CCOCC3)cc2)ncc1Cl [Compound 21, (1S,2S,3R,5S)-2-(5-chloro-2-(4-morpholinophenylamino)pyrimidin-4-ylamino)-N,2,6,6-tetramethylbicyclo[3.1.1]heptane-3-carboxamide] | 5.00 to 6.00
CNC(=O)[C@@H]1C[C@@H]2C[C@@H](C2(C)C)[C@]1(C)Nc1nc(Nc2ccc(OCCN3CCCC3)cc2)ncc1Cl [Compound 22, (1S,2S,3R,5S)-2-(5-chloro-2-(4-(2-(pyrrolidin-1-yl)ethoxy)phenylamino)pyrimidin-4-ylamino)-N,2,6,6-tetramethylbicyclo[3.1.1]heptane-3-carboxamide] | < 4.70
CNC(=O)[C@@H]1C[C@@H]2C[C@@H](C2(C)C)[C@]1(C)Nc1nc(Nc2ccc(OCCN3CCCC3)c(F)c2)ncc1Cl [Compound 23, (1S,2S,3R,5S)-2-(5-chloro-2-(3-fluoro-4-(2-(pyrrolidin-1-yl)ethoxy)phenylamino)pyrimidin-4-ylamino)-N,2,6,6-tetramethylbicyclo[3.1.1]heptane-3-carboxamide] | 5.00 to 6.00

same assay, conditions: Table 3, formula (Ic); Hela cells, Axl antibody cross-linking stimulation, phospho-Akt chemiluminescence normalized to relative cell number

SMILES | pIC50
CNC(=O)[C@H]1C[C@H]2C[C@H](C2(C)C)[C@@]1(C)Nc1nc(Nc2ccc3c(c2)OCC(=O)N3)ncc1Cl [Compound 28, (1R,2R,3S,5R)-2-(5-chloro-2-(3-oxo-3,4-dihydro-2H-benzo[b][1,4]oxazin-7-ylamino)pyrimidin-4-ylamino)-N,2,6,6-tetramethylbicyclo[3.1.1]heptane-3-carboxamide] | < 4.70

same assay, conditions: Table 4, formula (Id); Hela cells, Axl antibody cross-linking stimulation, phospho-Akt chemiluminescence normalized to relative cell number

SMILES | pIC50
CNC(=O)[C@H]1C[C@H]2C[C@H](C2(C)C)[C@@]1(C)Nc1nc(Nc2ccc3[nH]ccc3c2)ncc1Cl [Compound 26, (1R,2R,3S,5R)-2-(2-(1H-indol-5-ylamino)-5-chloropyrimidin-4-ylamino)-N,2,6,6-tetramethylbicyclo[3.1.1]heptane-3-carboxamide] | 5.00 to 6.00
CNC(=O)[C@H]1C[C@H]2C[C@H](C2(C)C)[C@@]1(C)Nc1nc(Nc2ccc3c(c2)CCN3CCN(C)C)ncc1Cl [Compound 27, (1R,2R,3S,5R)-2-(5-chloro-2-(1-(2-(dimethylamino)ethyl)indolin-5-ylamino)pyrimidin-4-ylamino)-N,2,6,6-tetramethylbicyclo[3.1.1]heptane-3-carboxamide] | > 6.00
